Measurements published in patent US11382920B2, “Therapeutic effects of Guanabenz treatment in vanishing white matter” (Stichting VUmc, priority 2017, dated 2022).

Key:
ATF4 expression = experiment: Stress-sensitive ATF4 luciferase reporter transfection assay (pNL1.1-mATF4) in U373 cells; type: cell-based, human; conditions: 15 μM compound added with 3 nM thapsigargin for 16 hours
Procedure: FIG. 9. […] ATF4 expression was assessed with a luciferase reporter construct under regulation of the murine Atf4 promoter and 5′ non-coding region. Cells were transfected as described. The ISR was induced by administration of 3 nM thapsigargin (TG) to the cell culture medium. […] Guanfacin (Gf), an a2 adrenergic receptor agonist without reported GADD34 modulating activity, was included in parallel as negative control. […] Statistical analyses were performed for individual compounds with a paired t-test (*, p<0.05, **, p<0.01).
The a2 adrenergic receptor agonist Guanabenz (Gb) has been reported to also target GADD34 and thereby impact on a negative feedback loop of the ISR [16]. GADD34 promotes dephosphorylation of eIF2P. Gb is thought to inhibit GADD34, it is thereby though to increase and prolong eIF2a phosphorylation and consequently increases production of ATF4 and its regulated transcriptome. We tested the effect of Gb on ATF4 production in U373 cell lines using a stress-sensitive transfection assay. Transfections were performed with the pNL1.1-mATF4 reporter construct, in which expression of the reporter gene is controlled by ISR-responsive sequences. Expression from the reporter construct was measured 2 days after transfection with a commercially available chemiluminescent assay and can be directly interpreted as a measure for ATF4 expression.
ATF4 expression was investigated in the absence or presence of ISR activation. […] Gb was added together with thapsigargin to the culture medium to test the effect of Gb on ATF4 expression. […] The eIF2B-enhancing compound ISRIB was included as positive control for ATF4-regulation.

eIF2a phosphorylation = eIF2a phosphorylation in brain tissue (Western blot) after one Gb injection; type: in vivo, mouse; conditions: wt and 2b5ho mice, one dose 10 mg/kg i.p., vs saline
Procedure: (§1) FIG. 10. […] Statistical analysis was performed with two-way ANOVA (*, p<0.05, **, p<0.01, ***, p<0.001).
(§2) As (unpublished) part of this study, we investigated the effect of Gb on the expression of ATF4 and its regulated transcriptome in mice. […] In short, we injected one dose of 10 mg/kg Gb intraperitoneally into four wildtype (wt) and four 2b5ho mice. Saline-injected wt and 2b5ho mice were used as negative controls for measuring Gb effects on ISR markers. […] Organs were removed, snap frozen in liquid nitrogen and stored at −80° C. Tissue samples for RNA and protein analyses were prepared as described. In postmortem brain tissue we measured levels of phosphorylated eIF2a with Western blot and levels of mRNAs encoding ATF4 and ATF4-regulated targets CHOP and TRIB3 with qPCR.

2b5^ho mice [1] = experiment: Western blot for myelin proteins MBP and MOG after Guanabenz treatment; type: in vivo, mouse; conditions: Guanabenz vs saline, n=2
Procedure: To test the effect of Guanabenz, 11 female 2b5^ho littermates were injected with saline (n=5) or Guanabenz (10 mg/kg; n=6) i.p. every week from 2 months until 10 months of age. Animals were randomly assigned to the Guanabenz or saline group, and single animals were taken as experimental units. At 11 months of age all mice were sacrificed and the brains were used for analysis. The brains of 3 saline- and 4 Guanabenz-injected animals were perfused as described and used for immunostaining and in situ hybridization. The brains of 2 saline- and 2 Guanabenz-injected animals were snapfrozen in liquid nitrogen and used for western blot analysis. No animals were excluded from any analysis.
Half of the forebrain and the whole cerebellum of 2 saline- and 2 Guanabenz-treated animals were separately used for western blot analysis. Forebrains were lysed in lysis buffer (50 mM Hepes, 150 mM NaCl, 1 mM EDTA, 2.5 mM ethylene glycol-bis(β-aminoethyl-ether)-N,N,N′,N′-tetraacetic acid, 0.1% Triton-X100, 10% glycerol, 1 mM dithiothreitol) supplemented with protease inhibitor cocktail (ThermoFisher Scientific) using a dounce tissue grinder (Sigma-Aldrich). […] Supernatants were collected and protein concentrations were measured with a Bradford assay. […] Secondary antibodies were raised against mouse or rabbit and conjugated with horseradish peroxidase. Blots were developed with SuperSignal™ West Femto Maximum Sensitivity Substrate (ThermoFisher Scientific) and measured in an Odyssey® Fc Imaging System (LI-COR Inc). Intensity of bands was quantified with ImageJ software and corrected for total amount of protein.

2b5^ho mice [2] = experiment: In situ hybridization for Plp-expressing cells after Guanabenz treatment; type: in vivo, mouse; conditions: Guanabenz i.p. weekly 2-10 months, forebrain (corpus callosum) and cerebellum, vs saline
Procedure: (§3) Tissue sections of 11 WT and 10 2b5^ho (carrying a homozygous Arg191His mutation in the Eif2b5 gene [7]) animals of 2, 5 or 7 months of age were collected after intracardiac perfusion with 4% paraformaldehyde (PFA). The brains were postfixed in 4% PFA for 1-2 days, after which half of the brain was embedded in paraffin and the other half was incubated overnight in 30% sucrose and snapfrozen in optimum cutting temperature compound (Sakura). […] To test the effect of Guanabenz, 11 female 2b5^ho littermates were injected with saline (n=5) or Guanabenz (10 mg/kg; n=6) i.p. every week from 2 months until 10 months of age. Animals were randomly assigned to the Guanabenz or saline group, and single animals were taken as experimental units. At 11 months of age all mice were sacrificed and the brains were used for analysis. The brains of 3 saline- and 4 Guanabenz-injected animals were perfused as described and used for immunostaining and in situ hybridization. […]
In situ hybridization targeting proteolipid protein (Plp) mRNA was performed on PFA-fixed snapfrozen tissue as previously described [7, 25]. […] The number of Plp-positive cells was analyzed in the rostrum and splenium of the corpus callosum, and in the white matter of the cerebellum. For each area 3 different pictures were taken with a 100× objective lens and cells were counted in a 100×200 μm square.

[3] = in vivo; cited from earlier work
2b5^ho mice [4] = experiment: Nestin cell count in corpus callosum after Guanabenz treatment of VWM mice; type: in vivo, mouse; conditions: Guanabenz i.p. weekly from 2 to 10 months of age, analysed at 11 months, vs saline, p=0.289, not significant
Procedure: as §3
(§4) Mouse tissue was processed for immunostaining as previously described [7]. […] Stainings were analyzed with a LeicaDM6000B microscope (Leica Microsystems). […]
Astrocytes double-positive for nestin and GFAP were counted in the splenium and rostrum of the corpus callosum, on 100× magnification pictures. Total cell number was determined by counting the DAPI-positive nuclei. For each animal, at least 3 slices were stained and counted. […]

2b5^ho mice [5] = experiment: Analysis of Bergmann glia translocation (S100ß/GFAP staining) after Guanabenz treatment; type: in vivo, mouse
Procedure: Tissue sections of 11 WT and 10 2b5^ho (carrying a homozygous Arg191His mutation in the Eif2b5 gene [7]) animals of 2, 5 or 7 months of age were collected after intracardiac perfusion with 4% paraformaldehyde (PFA). The brains were postfixed in 4% PFA for 1-2 days, after which half of the brain was embedded in paraffin and the other half was incubated overnight in 30% sucrose and snapfrozen in optimum cutting temperature compound (Sakura). […] To test the effect of Guanabenz, 11 female 2b5^ho littermates were injected with saline (n=5) or Guanabenz (10 mg/kg; n=6) i.p. every week from 2 months until 10 months of age. Animals were randomly assigned to the Guanabenz or saline group, and single animals were taken as experimental units. At 11 months of age all mice were sacrificed and the brains were used for analysis. […]
as §4
Bergmann glia pathology was analyzed in S100ß-stained sections. […] All the S100-positive cell bodies inside this band were counted and considered correctly localized. The S100ß-positive cell bodies located outside the band in the molecular layer were counted and considered as translocated Bergmann glia. The amount of translocated cell bodies was expressed as a ratio to the total number of S100ß-positive cell bodies counted.

[6] = tested on: mRNAs encoding ATF4 and ATF4-regulated targets CHOP and TRIB3; experiment: ISR marker mRNA levels in brain tissue (qPCR) after one Gb injection; type: in vivo, mouse; conditions: one dose 10 mg/kg i.p., vs saline
Procedure: as §1, §2

Row | SMILES | ATF4 expression under stress (ATF4 expression) | levels of eIF2a phosphorylation in brain tissue, 4 hours after injection (eIF2a phosphorylation) | levels of eIF2a phosphorylation in brain tissue, 24 hours after injection (eIF2a phosphorylation) | amount of MBP protein, cerebellum (2b5^ho mice [1]) | amount of MOG protein, cerebellum (2b5^ho mice [1]) | amount of MOG protein, forebrain (2b5^ho mice [1]) | number of Plp-expressing cells (2b5^ho mice [2]) | half-life in blood/tissue [3] | average decrease of number of nestin-positive cells in the corpus callosum (2b5^ho mice [4]) | GFAP expression and Bergmann glia morphology (2b5^ho mice [5]; Guanabenz i.p. weekly 2-10 months, cerebellum) | decrease of number of translocated Bergmann glia cell bodies (2b5^ho mice [5]; Guanabenz i.p. weekly from 2 to 10 months of age, analysed at 11 months, vs saline, p=0.032, reached numbers of untreated WT) | Atf4 mRNA levels in brain tissue, 2b5ho mice ([6]; 4 and 24 hours) | Ddit3 mRNA expression in brain tissue, 2b5ho mice ([6]; 4 and 24 hours) | Trib3 mRNA expression in brain tissue, 2b5ho mice ([6]; 4 and 24 hours, not significant at 4 hours) | Atf4 mRNA expression level in brain tissue, wt mice ([6]; n=2)
1 | O=C(COc1ccc(Cl)cc1)NC1CCC(NC(=O)COc2ccc(Cl)cc2)CC1 (centres unmarked) [ISRIB] | reduced | – | – | – | – | – | – | – | – | – | – | – | – | – | –
2 | N=C(N)NC(=O)Cc1c(Cl)cccc1Cl [Guanfacine, guanfacine] | small, variable and not statistically significant | – | – | – | – | – | – | – | – | – | – | – | – | – | –
3 | NC(N)=N/N=C/c1c(Cl)cccc1Cl [Guanabenz, guanabenz] | increased | lower than in saline-injected animals | normalized | increased | increased | increased | slightly increased in the forebrain and cerebellum, though not significantly | approximately 6 hours | 27% | decreased GFAP expression and a normalization of Bergmann glia morphology | 30% | transient decrease | reduced at both time points | reduced at both time points | unaffected
